Data published in patent US20210052882A1, “ENHANCED TREATMENT VOLUME AND SELECTIVE ABLATION USING ELECTROPORATION WITH ADJUVANT CALCIUM” (Virginia Tech Intellectual Properties, Inc., priority 2019, published 2021).
Values joined by “and” are separate entries in the source; they are usually repeats but may differ in a detail not shown here. Equal entries are not always repeated.

What was measured:
[1] = Properties of solutions (conductivity, osmolarity); assay type: physicochemical; settings: base 250 mM sucrose, 1 mM MgCl2, 10 mM HEPES, pH 7.2-7.4
Procedure: All solutions consisted of the same base ingredients: 250 mM sucrose, 1 mM MgCl2, and 10 mM HEPES buffer in deionized water with a pH in the range of 7.2-7.4. […] Cell culture media contains things such as serum and antibiotics that may affect results. Finally, fresh solutions were added immediately prior to pulsing. All solutions were adjusted to have a pH between 7.2-7.4.

cells [2] = settings: cited from earlier work
[3] = 450 V, 1 Hz, 100 μs; 80 pulses for IRE, 8 pulses for ECT; cited from earlier work
cells [4] = assay: Toxicity of calcium chloride to cells at the concentrations used; assay type: cell-based
[5] = test system: U251 malignant glioma cells; assay: Electric field threshold for cell death, ablation area mapped to finite element model
Procedure: For analysis, images were separated into two channels (green—Calcein AM, red—PI) and ablation areas for the green channel were analyzed for irreversible thresholds and red channels for reversible electroporation thresholds using a custom algorithm written in MATLAB. In cases where the algorithm was unable to accurately measure ablations, coordinate points from the algorithm outlining the ablation area were used as a guide to manually trace and measure the area in ImageJ. Ablation area measurements were mapped to a finite element model of the experimental setup to determine the corresponding electric field threshold.
Treatments were simulated using the finite element method (COMSOL Multiphysics, Burlington, Mass.) and the electric field and temperature distributions were determined. The mesh was refined until there was <1% change in the electric field and temperature values along a cutline between the electrodes. The mesh consisted of 102,615 total elements. […] From the finite element model of the collagen scaffold, a relationship between lesion area and electric field magnitude is determined by performing numerical integration on the surface of the scaffold for a range of electric field magnitudes (100-3000 V/cm). A curve was constructed and fit to the data using least squares fitting in MATLAB. […] This equation was used to accurately back out the electric field thresholds for each treatment condition without needing to manually determine them using COMSOL.
From the finite element model, it is possible to determine the electric field threshold required for cell death.
Using the finite element model of H-FIRE treatment in the scaffold, the corresponding electric field thresholds for each ablation area were characterized.

cells [6] = settings: nsPEFs; cited from earlier work
[7] = test system: U251 malignant glioma cells; assay: Reversible electroporation zone in collagen scaffolds imaged immediately after H-FIRE treatment; assay type: cell-based
Procedure: After pulsing, CaCl2, NaCl, KCl, and CaCl2/NaCl solutions were removed and cell culture media was added to each scaffold. For irreversible threshold experiments, the scaffolds were returned to the incubator for 24 hr prior to live/dead staining. For reversible threshold experiments, scaffolds were imaged immediately after treatment.
To visualize ablations, a live/dead stain was performed to visualize live and dead regions of cells in the scaffold. Scaffolds were incubated with 2 μM Calcein AM and 23 μM propidium iodide in phosphate buffered saline (PBS) for 30 minutes at room temperature. Scaffolds were then washed 2× with PBS prior to imaging using an inverted microscope (DMI 6000B, Leica Microsystems) with a 5× objective. Lesion areas were quantified for each treatment using a MATLAB algorithm. Since 24 h post treatment is sufficient to allow any reversibly electroporated cells to recover (as pore resealing happens on the order of minutes), staining the cells immediately after treatment and 24 h later allows for quantification of both the reversible zone of electroporation and irreversible zones of ablation.
To stain the scaffolds, media was removed and replaced with phosphate buffered saline (PBS) containing 2 μM Calcein AM (Invitrogen) and 23 μM PI (Invitrogen) and incubated at room temperature for 30 min. Scaffolds were then washed twice with PBS prior to imaging using an inverted microscope (DMI 6000B, Leica Microsystems) with a 5× objective, filter cubes, and an EM-CCD camera (Hamamatsu C9100). The appropriate filters were used to image Calcein AM (Ex:460-500, DC: 505, EM: 570-640) and propidium iodide (EX:545/26, DC:565, EM:605/70). To determine the reversible zone of electroporation, treatment followed the same electroporation protocol, but Calcein AM and PI were added to the CaCl2 and NaCl solutions at all steps prior to pulsing. Scaffolds were then imaged immediately after treatment.
Irreversible electroporation experiments were repeated 6-12 times for each condition. Reversible electroporation experiments were repeated at least six times. Discrepancies in the number of replicates between conditions were due to bubbles or other defects that may have changed the electric field distribution or prohibited a reliable measurement of ablation area. These scaffolds were excluded from analysis. Two-way ANOVA was used to test for differences in cell death area due to the different applied solutions and pulse waveforms. Tukey post-hoc comparisons were used to examine differences among treatment groups. Statistical analyses were performed with a confidence level of α=0.05 (MP Pro 14). Results are shown as means±standard deviation.
To investigate how CaCl2 and NaCl treatments affect permeabilization of the cells, the areas for reversible electroporation and their corresponding reversible electric field thresholds were characterized. Reversible electroporation thresholds for H-FIRE treatment have not been extensively characterized, making this work one of the first to quantify reversible thresholds for a range of unexplored pulse durations.

## [Ca+2].[Cl-].[Cl-] [CaCl2, calcium chloride]
[1]; 1 mM solution
  Conductivity: 0.075 ± 0.004 S/m
  Osmolarity: 289 mOsm/L
[1]; 5 mM solution
  Conductivity: 0.131 S/m
  Osmolarity: 300 mOsm/L
Cells [2]
  cell death, ECT pulses with calcium versus electroporation alone: more cell death
  cellular ATP, ECT pulses with calcium versus electroporation alone: greater decrease
[3]
  lesion area for IRE or ECT treatment when CaCl2 is added: greatly increased
Cells [4]
  toxicity to cells: non-toxic
[5]; 1 mM, 1-1-1 waveform
  reduction of electric field threshold compared to NaCl control: 1.24 ×
[5]; 1 mM, 2-1-2 waveform
  reduction of electric field threshold compared to NaCl control: 1.48 ×
[5]; 1 mM, 2-2-2 waveform
  reduction of electric field threshold compared to NaCl control: 1.5 ×
[5]; 1 mM, 5-1-5 waveform
  reduction of electric field threshold compared to NaCl control: 2.05 ×
[5]; 1 mM, 5-5-5 waveform
  reduction of electric field threshold compared to NaCl control: 2.1 ×
[5]; 1 mM, 10-1-10 waveform
  reduction of electric field threshold compared to NaCl control: 2.2 × and 2.19 ×
[5]; 1-1-1 waveform
  reduction of electric field threshold, 5 mM NaCl to 5 mM CaCl2: 1.46 ×
[5]; 2-1-2 waveform
  reduction of electric field threshold, 5 mM NaCl to 5 mM CaCl2: 1.77 × and 1.91 ×
[5]; 5-1-5 waveform
  reduction of electric field threshold, 5 mM NaCl to 5 mM CaCl2: 2.49 × and 2.43 ×
[5]; 10-1-10 waveform
  reduction of electric field threshold, 5 mM NaCl to 5 mM CaCl2: 1.92 × and 1.83 ×
[5]; H-FIRE 10-1-10 waveform with calcium, concentration not given
  electric field threshold: 784±107 V/cm
[5]; H-FIRE 10-1-10 waveform, 1 mM
  electric field threshold: 771±129 V/cm
[5]; IRE treatment
  electric field threshold: 467±67 V/cm
Cells [6]
  cell swelling and mode of cell death: experienced necrosis
[7]; 1 mM CaCl2, 2-1-2 waveform
  reversible zone larger than the 1 mM NaCl zone: 1.56 ×
[7]; 1 mM CaCl2, 5-1-5 waveform
  reversible zone larger than the 1 mM NaCl zone: 1.7 ×
[7]; 1 mM CaCl2, 10-1-10 waveform
  reversible zone larger than the 1 mM NaCl zone: 1.42 ×
[7]; 5 mM CaCl2, 2-1-2 waveform
  reversible zone larger than the 1 mM NaCl zone: 1.66 ×
[7]; 5 mM CaCl2, 5-1-5 waveform
  reversible zone larger than the 1 mM NaCl zone: 1.73 ×
[7]; 5 mM CaCl2, 10-1-10 waveform
  reversible zone larger than the 1 mM NaCl zone: 1.46 ×
[7]; 2-1-2 waveform, 1 mM
  reversible zones larger than irreversible zones: 2.62 ×
[7]; 2-1-2 waveform, 5 mM
  reversible zones larger than irreversible zones: 1.47 ×
[7]; 5-1-5 waveform, 1 mM
  reversible zones larger than irreversible zones: 1.67 ×
[7]; 5-1-5 waveform, 5 mM
  reversible zones larger than irreversible zones: 1.3 ×
[7]; 10-1-10 waveform, 1 mM
  reversible zones larger than irreversible zones: 1.32 ×
[7]; 10-1-10 waveform, 5 mM
  reversible zones larger than irreversible zones: 1.59 ×
[7]; FIG. 10
  difference between reversible and irreversible electroporation areas: decreased
[7]; imaged immediately after treatment
  difference between 1 mM and 5 mM treatments, reversible case: no statistically significant difference
